Measurements reported in patent US12459914B2, “Compounds and compositions for the treatment of tumors” (FONDAZIONE ISTITUTO ITALIANO DI TECNOLOGIA, priority 2019, dated 2025).
pEC50: −log10 of the molar value.

Assays:
BxPC-3 cells [1] = experiment: Cell viability assay (CellTiter Glo); assay type: cell-based; settings: Homo sapiens, 72 h
BxPC-3 cells [2] = experiment: Association with olaparib (given alone or in combination), cell viability / cytotoxicity; assay type: cell-based; settings: olaparib 10 μM, 72 h
Method: BxPC-3 cells were grown in RPMI 1640 containing 10% FBS, 100 U/ml penicillin/streptomycin, 2 mM glutamine. All media and supplements were from Sigma-Aldrich. Cultures were routinely tested for Mycoplasma contamination. Treatments (Olaparib and BRCA2-Rad51 disruptors) were administered in culture medium supplemented with 0.6% DMSO. The same amount of DMSO was added to the control, untreated cultures.
Cell viability was assessed by CellTiter Glo, Luminescent Cell Viability Assay. Briefly, BxPC-3 cells (1×10^4/well) were plated in white 96-well plates with clear bottom and treated for 72 h with olaparib (10 μM) or with the BRCA2-Rad51 disruptors, given alone or in combination. After treatments, the plate was allowed to equilibrate at room temperature for 30 min and the CellTiter-Glo reactive was directly added to each well. The plate was kept on a shaker for 2 min to induce cell lysis and its luminescence was measured by using a Fluoroskan Ascent FL reader (Labsystems) using manufacturer's instructions.
Cell death was assessed by applying the CellTox™ Green Cytotoxicity assay (Promega). Briefly, BxPC-3 (1×10^4/well) were plated in black 96-well plates with clear bottom and treated for 72 h with olaparib (10 μM) or with the BRCA2-Rad51 disruptors, given alone or in combination. At the end of treatment, the CellTox™ dye was added to cell cultures and the green fluorescence signal, which is produced by the binding interaction with dead cell DNA, was measured following the manufacturer's instructions. The fluorescence signal was detected using the EnSpire 2300 Multilabel Reader (Perkin Elmer); for each sample, the obtained signal was normalized on the number of viable cells, detected by the CellTiterGlo reagent.

BRC4/RAD51 interaction = target: T1, BRC4/RAD51 interaction (Homo sapiens, UniProt Q06609); experiment: Competitive ELISA assay, disruption of BRC4/RAD51 interaction; assay type: binding; settings: human Rad51, biotinylated BRC4 peptide
T1 construct: purchased Creative Biomart (Rad51); Life Technologies (BRC4 peptide)
T1 sequence (Q06609 1-339): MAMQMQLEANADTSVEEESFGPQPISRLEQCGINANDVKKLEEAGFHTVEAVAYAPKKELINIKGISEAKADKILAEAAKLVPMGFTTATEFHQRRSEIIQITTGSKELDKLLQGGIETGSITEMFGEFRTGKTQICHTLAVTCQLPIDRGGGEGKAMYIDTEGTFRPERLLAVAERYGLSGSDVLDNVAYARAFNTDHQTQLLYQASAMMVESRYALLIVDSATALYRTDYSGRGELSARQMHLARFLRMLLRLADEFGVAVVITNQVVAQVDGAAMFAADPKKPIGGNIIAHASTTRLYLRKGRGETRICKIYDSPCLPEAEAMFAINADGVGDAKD
Procedure, shortened: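 Competitive ELISA: plates coated with biotinylated BRC4 peptide, blocked with 1% BSA/PBST, then hybridized overnight with human Rad51 protein. Compounds tested in triplicate dose-response, […], 1% DMSO. Bound Rad51 detected colorimetrically with anti-Rad51 antibody, HRP secondary and TMB quenched with HCl.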

**Q.** What does the source list for `CCC(=O)N1N=C(c2c(-c3ccccc3)c3cc(Cl)ccc3[nH]c2=O)CC1c1ccc(OC)cc1` (stereo not drawn) [d.12, 6-chloro-3-[3-(4-methoxyphenyl)-2-propanoyl-3,4-dihydropyrazol-5-yl]-4-phenyl-1H-quinolin-2-one]?
**A.** pEC50 (BxPC-3 cells [1]): 4.72; Olaparib Assoc. (BxPC-3 cells [2]): synergy; pEC50 (BRC4/RAD51 interaction): 4.72
